Measurements from PMC4259358, “Functional Characterization of Nuclear Localization and Export Signals in Hepatitis C Virus Proteins and Their Role in the Membranous Web” (PLoS ONE, 2014).
Ends that are not written are not given here.

Columns and labels:
JFH-1 HCV = assay type: cell-based, Hepatitis C virus; settings: Huh7.5, JFH-1, 4 h at 4°C then 37°C; added at 2 h intervals; % NS5A-positive cells at 72 h PTS; Ezetimibe 30 µM, LMB 18 nM, BMS-986094 10 nM, DGAT 1 inhibitor 10 nM; n = 3
Protocol: Huh7.5 cells were infected with JFH-1 HCV and maintained at 4°C for 4 hours (h) to synchronize the cells before shifting the temperature to 37°C. Post temperature shift (PTS), infected cells were incubated for various lengths of times prior to the addition of peptides or known inhibitors of HCV at 2 h intervals. […] We deliberately selected the final time point of 72 h PTS to reflect the number of cells infected by a second round of infection. […] This would be reflected by the number of cells infected in the second round as measured at 72 h PTS.
In order to elucidate the time points in infection when the nuclear transport signals bearing peptides are functional, cells were synchronously infected and treated with the indicated peptides. Each time point (2 h intervals) represents a culture treated with the indicated reagent at the specified time post temperature shift (PTS) and initiation of HCV infection. […] (A) Known inhibitors of HCV production (Ezetimibe (30 µM), LMB (18 nM), BMS-986094 (10 nM) and DGAT 1 inhibitor (10 nM)) and control (Pen peptide 100 µM, DMSO 2%, no treatment, and no infection) were examined. […] Error bars represent ± standard deviation, n = 3.
For the time of addition experiments, cells were seeded at a density of 6.25×10^4 cells/well in a 96-well plate and infected with 0.1 genomic equivalents of serially passaged JFH-1 virus on ice: cells then were incubated at 4°C for 4 h.
Briefly, Huh7.5 cells were infected as described above and the test compounds were added to different wells at different time points before the temperature shift (-4 h and -2 h) and every 2 h after the temperature shift (0, 2, 4,…, 48 h). […] The infection levels were calculated by counting infected and total cells numbers in ten random fields for each condition. The non-treated cell infection level was normalized to 100% and all other infections were calculated based on that normalization.

IPOA5 = molecular target: T1, IPOA5 (Homo sapiens, UniProt P52294); test: biochemical; assay type: binding
T1 construct: Expression and purification of full length IPOA5, IPO5 were perform according to methods described previously; His tag; made in house; host or cells: Escherichia coli BL21(DE3), pET21 vector

XPO1 (CRM1) = test: HCV genotype 1 peptide array probed with Huh7.5 cell lysate; assay type: binding; settings: array of 15 residue peptides (8 residue overlaps), Huh7.5 lysate, anti-XPO1 antibody; a peptide bound
Protocol: (§1) However, various HCV proteins contain putative NLSs and NESs, [41], [53]. To identify potential interactions between cellular NTFs and HCV proteins, we designed a peptide array spanning the entire HCV genotype 1 consensus polyprotein sequence. These arrays were incubated with or without cell lysates and then probed using specific antibodies for components of the nuclear transport machinery. We detected binding of IPOA5 (importin α5/kap α1), IPO5 (importin β3/kap β3) and XPO1 (CRM1), but not IPO1 (importin β1/kap β1), to eleven distinct regions within HCV proteins (Fig. 1A, Table 1). All of the antibodies were also tested by western blotting of cell lysates to validate that they detected the corresponding NTF (Fig. 1B).
(§2) Figure 1 Identification of sequences within the HCV polyprotein that bind nuclear transport factors. (A) HCV genotype 1 peptide arrays consisting of 15 residue peptides (with 8 residue overlaps) spanning the complete HCV polypeptide were incubated with Huh7.5 cells lysates. Bound NTFs were detected using antibodies specific for the indicated NTF. Control peptide arrays were incubated with only NTF-specific antibodies. The different colored regions of the array represent peptides derived from different HCV proteins (see schematic). The last four peptides on the array are additional sequences which some of the HCV strains have in their polyproteins at the C terminus. (B) The same lysate used to probe the peptide arrays was also analyzed by western blotting to detect the indicated NTFs and assess the specificities of the antibodies. (C) Schematic summary of the localization of the NTF binding sites on the indicated HCV proteins.
(§3) A consensus sequence of HCV Genotype 1 polyprotein was used to design consecutive fifteen amino-acid residue peptides with eight residue overlaps along the complete polyprotein sequence. Peptides were synthesised by Intavis Bioanalytical Instruments (Koeln, Germany) using a CelluSpots peptide array synthesis technology. Peptide arrays were incubated in blocking buffer (TBS containing 0.05% tween 20 (v/v) and 10% skim milk (g/v)) overnight at 4°C on a gentle shaker. Following the blocking, the peptide arrays were washed three times with washing buffer (TBS containing 0.05% tween 20 (v/v)) for 5 min at room temperature on a gentle shaker. The peptide arrays were then incubated for 4 h with cell lysate from two T-75 flasks of fully confluent cells lysed by lysis buffer (10 mM Tris-HCl, pH 7.5, 150 mM NaCl, 2 mM EDTA, 0.1% Triton-X100, 1 mM PMSF, 2 µg/ml aprotinin, 2 µg/ml leupeptin and 0.1 units/µl RNasin) mixed with blocking buffer (ratio 1∶1 v/v) and incubated at room temperature on a gentle shaker. Following this incubation, peptide arrays were rinsed with washing buffer for 30 sec and then washed five times in washing buffer and each wash lasted for 5 min at room temperature on a gentle shaker. Following washing, the peptide arrays were incubated with the primary antibody as indicated in Fig. 1 (1∶100 dilution) for 4 h at room temperature on a gentle shaker. Arrays were then rinsed, washed as described above, and incubated with a complementary HRP conjugated secondary antibody (1∶1000) for 2 h at room temperature on a gentle shaker. The peptide arrays were then rinsed and washed as described above followed by initiation of HRP chemiluminescence with ECL detection reagent (GE Healthcare, RPN2106) and the signal was detected using Fuji RX film (Fujifilm, 47410 08399).

[1] = system: IPO5 (importin β3/kap β3); test: as above; assay type: binding; settings: array of 15 residue peptides (8 residue overlaps), Huh7.5 lysate, anti-IPO5 antibody; a peptide bound
Protocol: as §1, §2, §3

[2] = system: IPOA5 (importin α5/kap α1); test: as above; assay type: binding; settings: array of 15 residue peptides (8 residue overlaps), Huh7.5 lysate, anti-IPOA5 antibody; a peptide bound
Protocol: as §1, §2, §3

HEK293T cells = test: Localization of nuclear transport signal-double GFP reporter in HEK293T cells; assay type: cell-based; design: key: +++ for strong; ++ for moderate; + for weak; − for no localization; settings: double GFP cargo, 24 h post transfection, fluorescence quantified with ImageJ (S6, S7 Figures); NES/SEN on SV40 NLS double GFP
Source text: To determine whether NTF binding sites found in the HCV proteins were functional nuclear transport signals, we constructed reporter proteins each consisting of one of the HCV proteins NTF binding sites followed by two C-terminal, tandemly repeated GFP molecules. The double GFP moieties were required to keep the reporter from entering the nucleus, since a single GFP is small enough to diffuse freely through NPCs, [35]. As controls, constructs containing the reversed amino-acid residue sequence of the potential NLS (SLN) were also examined using the double GFP reporter assay (S5 Figure). These SLN reporters were predicted to not accumulate in the nucleoplasm. In addition, reporters to examine the functionality of the potential XPO1 binding domains were also constructed. These reporters consist of an SV40 NLS and a double GFP molecule followed by one of the various potential NESs at the C-terminus (S5 Figure). In the absence of a functional NES, this reporter will accumulate in the nucleus. However, a functional NES is predicted to export the reporter, leading to increased steady-state levels of the reporter in the cytoplasm.
Figure 4 Functionality of the putative nuclear transport signals in cells. Cells were transfected by the vectors encoding a nuclear transport reporter consisting of a tandemly repeated double GFP fused to the indicated C-terminal nuclear transport signal (panels A-N). At 24 h following transfection, cells were fixed and stained with Hoechst to visualize the nucleus. Cells were examined using a Zeiss inverted Axiovert 200 M microscope to assess the localization of the GFP (green) and its relationship to the nucleus (blue). A hashed yellow square demarcates the magnified area shown in the right-most image of each panel. Fluorescent intensity was quantified using ImageJ v. […] Analysis of the reverse sequences of each transport signal as well as the mutant SV40 NLS was also performed and the results are shown in S7 Figure.
Nuclear transport signals-double GFP constructs were transfected into HEK293T cells using lipofectamine 2000. At 24 h post transfection cells were fixed, stained, and visualized for localization of the GFP. For detailed information see S1 Methods.
Nuclear transport signal-double GFP constructs were transfected into HEK293T cells using lipofectamine 2000 reagent (Invitrogen, 11668019). At 24 h post transfection cells were fixed with 3.76% formaldehyde at room temperature (Sigma, F8775-500ML) for 8 min then permeabilized in 0.2% Triton X-100 (VWR, CA97062-208) for 2 min. Cells were washed three times with X1 PBS and were stained with Hoechst 1:5000 in X1 PBS for 5 min followed by three washes with X1 PBS. The cells were visualized using a Zeiss inverted Axiovert 200M microscope with a 20x/0.8 objective lens to examine localization of the GFP. At least ten random fields of cells were imaged for each combination. Channels were merged using ImageJ software (National Institutes of Health). Photoshop Elements 10 (Adobe) software was used to adjust brightness and contrast levels for individual images and to assemble images into figures.

IPO5 = molecular target: T2, IPO5 (Homo sapiens, UniProt O00410); test: biochemical; assay type: binding
T2 construct: Expression and purification of full length IPOA5, IPO5 were perform according to methods described previously; His tag; made in house; host or cells: Escherichia coli BL21(DE3), pET21 vector
T2 sequence (O00410 whole entry): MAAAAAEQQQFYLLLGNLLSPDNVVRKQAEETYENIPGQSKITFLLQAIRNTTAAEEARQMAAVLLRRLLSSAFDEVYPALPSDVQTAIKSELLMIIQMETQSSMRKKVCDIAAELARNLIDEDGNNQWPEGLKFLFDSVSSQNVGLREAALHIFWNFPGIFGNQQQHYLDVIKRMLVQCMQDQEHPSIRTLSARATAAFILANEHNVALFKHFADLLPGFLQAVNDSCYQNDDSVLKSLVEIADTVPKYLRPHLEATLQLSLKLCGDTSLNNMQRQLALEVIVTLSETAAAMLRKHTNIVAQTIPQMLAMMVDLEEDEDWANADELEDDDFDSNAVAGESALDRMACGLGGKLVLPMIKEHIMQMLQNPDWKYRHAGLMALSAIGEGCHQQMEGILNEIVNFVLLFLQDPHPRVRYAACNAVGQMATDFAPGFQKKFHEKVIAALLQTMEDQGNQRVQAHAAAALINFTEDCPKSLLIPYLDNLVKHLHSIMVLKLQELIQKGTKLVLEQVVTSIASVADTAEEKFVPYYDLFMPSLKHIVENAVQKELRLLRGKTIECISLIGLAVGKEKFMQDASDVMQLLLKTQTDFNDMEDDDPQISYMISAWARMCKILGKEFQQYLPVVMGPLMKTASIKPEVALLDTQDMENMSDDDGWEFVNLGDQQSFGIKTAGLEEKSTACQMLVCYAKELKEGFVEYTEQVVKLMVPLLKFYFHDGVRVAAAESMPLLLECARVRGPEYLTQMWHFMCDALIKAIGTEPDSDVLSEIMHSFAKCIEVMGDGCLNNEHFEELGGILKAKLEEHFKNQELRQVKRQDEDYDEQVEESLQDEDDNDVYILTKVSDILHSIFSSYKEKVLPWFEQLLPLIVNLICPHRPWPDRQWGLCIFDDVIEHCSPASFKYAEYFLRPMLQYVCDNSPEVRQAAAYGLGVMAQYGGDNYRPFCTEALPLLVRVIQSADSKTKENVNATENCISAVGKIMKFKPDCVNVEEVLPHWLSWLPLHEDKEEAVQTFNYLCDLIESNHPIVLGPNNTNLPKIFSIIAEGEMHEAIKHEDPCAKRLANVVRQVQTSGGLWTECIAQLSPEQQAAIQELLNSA

T1 sequence (P52294 whole entry): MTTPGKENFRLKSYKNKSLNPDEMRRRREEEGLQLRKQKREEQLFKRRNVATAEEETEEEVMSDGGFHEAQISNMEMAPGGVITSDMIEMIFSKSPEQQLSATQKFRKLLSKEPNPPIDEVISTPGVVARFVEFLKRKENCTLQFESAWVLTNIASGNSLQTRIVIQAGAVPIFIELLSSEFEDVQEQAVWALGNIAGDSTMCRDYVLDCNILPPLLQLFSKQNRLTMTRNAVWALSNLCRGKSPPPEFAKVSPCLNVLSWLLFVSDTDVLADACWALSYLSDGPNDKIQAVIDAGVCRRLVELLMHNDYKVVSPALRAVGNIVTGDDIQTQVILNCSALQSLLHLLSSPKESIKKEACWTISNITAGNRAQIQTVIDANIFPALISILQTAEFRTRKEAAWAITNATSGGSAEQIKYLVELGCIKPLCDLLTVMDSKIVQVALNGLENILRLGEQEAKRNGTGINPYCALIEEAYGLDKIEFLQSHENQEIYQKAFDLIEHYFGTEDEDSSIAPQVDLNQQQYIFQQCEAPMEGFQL

Compound: COc1nc(N)nc2c1ncn2[C@@H]1O[C@H](COP(=O)(N[C@@H](C)C(=O)OCC(C)(C)C)Oc2cccc3ccccc23)[C@@H](O)[C@@]1(C)O (some centres unmarked) [BMS-986094]
- time of addition at which the ability to inhibit HCV infection is lost (JFH-1 HCV): 10–24 h PTS

Compound: CC[C@H](C)[C@H](NC(=O)[C@H](CCCCN)NC(=O)[C@@H](NC(=O)[C@H](CCC(N)=O)NC(=O)[C@H](CCCNC(=N)N)NC(=O)CNC(=O)[C@H](Cc1c[nH]c2ccccc12)NC(=O)[C@@H](NC(=O)[C@@H](NC(=O)[C@@H](NC(=O)[C@H](CCCCN)NC(=O)[C@H](CCCCN)NC(=O)[C@H](CCC(=O)O)NC(=O)[C@H](CCSC)NC(=O)[C@@H]1CCCN1C(=O)[C@H](CO)NC(=O)[C@H](Cc1ccccc1)NC(=O)[C@@H](NC(=O)[C@@H](NC(=O)[C@@H]1CCCN1)[C@@H](C)CC)[C@@H](C)CC)C(C)C)[C@@H](C)CC)C(C)C)[C@@H](C)CC)C(=O)N[C@@H](Cc1c[nH]c2ccccc12)C(=O)N[C@@H](Cc1ccccc1)C(=O)N[C@@H](CCC(N)=O)C(=O)N[C@@H](CC(N)=O)C(=O)N[C@@H](CCCNC(=N)N)C(=O)N[C@@H](CCCNC(=N)N)C(=O)N[C@@H](CCSC)C(=O)N[C@@H](CCCCN)C(=O)N[C@@H](Cc1c[nH]c2ccccc12)C(=O)N[C@@H](CCCCN)C(=O)N[C@@H](CCCCN)C(=O)O [NS2 NLS]
- Kd (IPOA5): 79.3 ± 3.89 nM

Compound: CC[C@H](C)[C@H](NC(=O)[C@H](CCCCN)NC(=O)[C@@H](NC(=O)[C@H](CCC(N)=O)NC(=O)[C@H](CCCNC(=N)N)NC(=O)[C@@H](NC(=O)[C@H](CCCCN)NC(=O)[C@H](CCCNC(=N)N)NC(=O)[C@H](CCCCN)NC(=O)[C@H](CCCCN)NC(=O)[C@H](CCCCN)NC(=O)[C@@H]1CCCN1)C(C)C)[C@@H](C)CC)C(=O)N[C@@H](Cc1c[nH]c2ccccc12)C(=O)N[C@@H](Cc1ccccc1)C(=O)N[C@@H](CCC(N)=O)C(=O)N[C@@H](CC(N)=O)C(=O)N[C@@H](CCCNC(=N)N)C(=O)N[C@@H](CCCNC(=N)N)C(=O)N[C@@H](CCSC)C(=O)N[C@@H](CCCCN)C(=O)N[C@@H](Cc1c[nH]c2ccccc12)C(=O)N[C@@H](CCCCN)C(=O)N[C@@H](CCCCN)C(=O)O [SV40 NLS, reference compound]
- Kd (IPOA5): 27.1 ± 4.23 nM

Compound: FLLALLSCITVPVSA [A23, HCV genotype 1 array peptide, core residues 177-191]
- Binding to XPO1 (XPO1 (CRM1)): A23: 177-[…]-191

Compound: GVYLLPRRGPRLGVR [A5, HCV genotype 1 array peptide, core residues 33-47]
- Binds to IPO5 [1]: A5: 33-[…]-47
- Binding to IPOA5 [2]: A5: 33-[…]-47

Compound: GWVIVKKEMPSFIIPRQIKIWFQNRRMKWKK [NS2 SLN]
- Localization Cytoplasmic (HEK293T cells): +++
- Localization Nuclear (HEK293T cells): −

Compound: IPKDRRSTGKAWGKP [A9, HCV genotype 1 array peptide, core residues 65-79]
- Binds to IPO5 [1]: A9: 65-[…]-79
- Binding to IPOA5 [2]: A9: 65-[…]-79

Compound: KAPTPPPRRRRTVGL [M3]
- Binds to IPO5 [1]: M3: 2321-[…]-2335

Compound: KVIDTLTCGFADLMG [A16, HCV genotype 1 array peptide, core residues 121-135]
- Binding to XPO1 (XPO1 (CRM1)): A16: 121-[…]-135

Compound: LPGFPFSIFLLALLS [A22, HCV genotype 1 array peptide, core residues 169-183]
- Binding to XPO1 (XPO1 (CRM1)): A22: 169-[…]-183

Compound: MSTNPKPQRKTKRNT [A1, HCV genotype 1 array peptide, core residues 1-15]
- Binds to IPO5 [1]: A1: 1-[…]-15
- Binding to IPOA5 [2]: A1: 1-[…]-15

Compound: PARRRGDKRGALLSP [F24]
- Binds to IPO5 [1]: F24: 1145-[…]-1159

Compound: PARRRGDKRRQIKIWFQNRRMKWKK [NS3 NLS 1]
- Kd (IPO5): 33.8 ± 5.6 nM

Compound: PIIFSPMEKKVIVWG [F3]
- Binding to IPOA5 [2]: F3: 977-[…]-991

Compound: PPPRRRRTVRQIKIWFQNRRMKWKK [NS5A NLS]
- Kd (IPOA5): 7630 ± 259 nM
- Kd (IPO5): 32.3 ± 4.99 nM

Compound: PRHRSRNVGKRQIKIWFQNRRMKWKK [Core NLS 4]
- Kd (IPOA5): 518 ± 28.6 nM
- Kd (IPO5): 105 ± 31.1 nM

Compound: PSWGPTDPRHRSRNV [A14, HCV genotype 1 array peptide, core residues 105-119]
- Binds to IPO5 [1]: A14: 105-[…]-119

Compound: QPRGRRQPIPKDRRS [A8, HCV genotype 1 array peptide, core residues 57-71]
- Binds to IPO5 [1]: A8: 57-[…]-71
- Binding to IPOA5 [2]: A8: 57-[…]-71

Compound: RHRSRNVGKVIDTLT [A15, HCV genotype 1 array peptide, core residues 113-127]
- Binds to IPO5 [1]: A15: 113-[…]-127

Compound: RKTKRNTNRRPEDVK [A2, HCV genotype 1 array peptide, core residues 9-23]
- Binds to IPO5 [1]: A2: 9-[…]-23
- Binding to IPOA5 [2]: A2: 9-[…]-23

Compound: RRRTVGLSESTISEA [M4]
- Binds to IPO5 [1]: M4: 2329-[…]-2343

Compound: RSQRRGRTTGRGRRQIKIWFQNRRMKWKK [NS3 NLS 2]
- Kd (IPOA5): 36.6 ± 7.13 nM
- Kd (IPO5): 35.8 ± 7.26 nM

Compound: SQRRGRTGRGRQGTY [H19]
- Binds to IPO5 [1]: H19: 1489-[…]-1503
- Binding to IPOA5 [2]: H19: 1489-[…]-1503

Compound: TIFYQLWWILRALFLKYHPSLTLLILRQIKIWFQNRRMKWKK [NS2 SEN]
- Localization Cytoplasmic (HEK293T cells): −
- Localization Nuclear (HEK293T cells): +++

Compound: TLLGQCLWWLCYLLT [E10]
- Binding to XPO1 (XPO1 (CRM1)): E10: 841-[…]-855

Compound: VPQDAVSRSQRRGRT [H18]
- Binds to IPO5 [1]: H18: 1481-[…]-1495
- Binding to IPOA5 [2]: H18: 1481-[…]-1495

Compound: VTRNADVIPARRRGD [F23]
- Binds to IPO5 [1]: F23: 1137-[…]-1151

Compound: VTRRRRPPPRQIKIWFQNRRMKWKK [NS5A SLN]
- Localization Cytoplasmic (HEK293T cells): +++
- Localization Nuclear (HEK293T cells): −
